Laboratory results as given in ChEMBL document CHEMBL1134243, “2-[N1-2-pyrimidyl-aminobenzenesulfonamido] ethyl 4-bis(2-chloroethyl) aminophenyl butyrate: a potent antitumor agent” (Bioorg Med Chem Lett, 2001).

Legend:
[1] = Therapeutic Index was determined; conditions: read-out: TI
[2] = Lethal dose at a concentration of 0.225 mmol/kg in mice administered intraperitoneally; format: toxicity, organism-based; conditions: mouse, in vivo, ip
[3] = In vivo antitumor activity against murine S-180 sarcoma at a dose of 9.6 mg/kg administered intraperitoneally 7qd in mice expressed effect on tumor weight; format: functional, Mus musculus; conditions: route intraperitoneal
[4] = In vivo antitumor activity against murine S-180 sarcoma at a dose of 4.8 mg/kg administered intraperitoneally 7qd in mice expressed as percent inhibition; format: functional; conditions: Mus musculus, S-180, ip, route intraperitoneal
[5] = In vivo antitumor activity against murine S-180 sarcoma at a dose of 6.5 mg/kg administered intraperitoneally 7qd in mice expressed as percent inhibition; format: functional; conditions: Mus musculus, S-180, ip, route intraperitoneal
[6] = In vivo antitumor activity against murine S-180 sarcoma at a dose of 9.6 mg/kg administered intraperitoneally 7qd in mice expressed as percent inhibition; format: functional; conditions: Mus musculus, S-180, ip, route intraperitoneal
Mus musculus [7] = assay: Antitumor activity against murine S-180 sarcoma at dose of LD50 X 1/10 equal toxicity; format: functional
Mus musculus [8] = assay: Antitumor activity against murine S-180 sarcoma at dose of LD50 X 1/20 equal toxicity; format: functional
Mus musculus [9] = assay: Antitumor activity against murine S-180 sarcoma at dose of LD50 X 1/40 equal toxicity; format: functional
[10] = In vivo antitumor activity against murine S-180 sarcoma at a dose of 13 mg/kg administered intraperitoneally 7qd in Male TA1 mice; 9 survived out of 10 mice; format: functional, Mus musculus; conditions: route intraperitoneal
[11] = In vivo antitumor activity against murine S-180 sarcoma at a dose of 2.5 mg/kg administered intraperitoneally 7qd in Male TA1 mice; 10 survived out of 10 mice; format: functional, Mus musculus; conditions: route intraperitoneal
[12] = In vivo antitumor activity against murine S-180 sarcoma at a dose of 3.3 mg/kg administered intraperitoneally 7qd in Male TA1 mice; 10 survived out of 10 mice; format: functional, Mus musculus; conditions: route intraperitoneal
[13] = In vivo antitumor activity against murine S-180 sarcoma at a dose of 6.5 mg/kg administered intraperitoneally 7qd in Male TA1 mice; 10 survived out of 10 mice; format: functional, Mus musculus; conditions: route intraperitoneal
[14] = In vivo antitumor activity against murine S-180 sarcoma at a dose of 9.6 mg/kg administered intraperitoneally 7qd in Male TA1 mice; 9 survived out of 10 mice; format: functional, Mus musculus; conditions: route intraperitoneal
[15] = In vivo antitumor activity against murine S-180 sarcoma at a dose of 13 mg/kg administered intraperitoneally 7qd in mice expressed effect on tumor weight; format: functional, Mus musculus; conditions: route intraperitoneal
[16] = In vivo antitumor activity against murine S-180 sarcoma at a dose of 2.5 mg/kg administered intraperitoneally 7qd in mice expressed effect on tumor weight; format: functional, Mus musculus; conditions: route intraperitoneal
[17] = In vivo antitumor activity against murine S-180 sarcoma at a dose of 3.3 mg/kg administered intraperitoneally 7qd in mice expressed effect on tumor weight; format: functional, Mus musculus; conditions: route intraperitoneal
[18] = In vivo antitumor activity against murine S-180 sarcoma at a dose of 4.8 mg/kg administered intraperitoneally 7qd in mice expressed effect on tumor weight; format: functional, Mus musculus; conditions: route intraperitoneal
[19] = In vivo antitumor activity against murine S-180 sarcoma at a dose of 6.5 mg/kg administered intraperitoneally 7qd in mice expressed effect on tumor weight; format: functional, Mus musculus; conditions: route intraperitoneal
[20] = Antitumor activity against murine S-180 sarcoma at dose of 0.016(mmol/kg); format: functional, Mus musculus
[21] = Antitumor activity against murine S-180 sarcoma at dose of 0.022(mmol/kg); format: functional, Mus musculus
[22] = In vivo antitumor activity against murine S-180 sarcoma at a dose of 13 mg/kg administered intraperitoneally 7qd in mice; Body wt initial/Final = 19.8/18.0; format: functional, Mus musculus; conditions: route intraperitoneal
[23] = In vivo antitumor activity against murine S-180 sarcoma at a dose of 2.5 mg/kg administered intraperitoneally 7qd in mice; Body wt initial/Final = 19.9/23.4; format: functional, Mus musculus; conditions: route intraperitoneal
[24] = In vivo antitumor activity against murine S-180 sarcoma at a dose of 3.3 mg/kg administered intraperitoneally 7qd in mice; Body wt initial/Final = 19.6/22.5; format: functional, Mus musculus; conditions: route intraperitoneal
[25] = Antitumor activity against murine S-180 sarcoma at dose of 0.004(mmol/kg); format: functional, Mus musculus
[26] = Antitumor activity against murine S-180 sarcoma at dose of 0.008(mmol/kg); format: functional, Mus musculus
[27] = In vivo antitumor activity against murine S-180 sarcoma at a dose of 6.5 mg/kg administered intraperitoneally 7qd in mice; Body wt initial/Final = 19.8/19.5; format: functional, Mus musculus; conditions: route intraperitoneal
[28] = In vivo antitumor activity against murine S-180 sarcoma at a dose of 9.6 mg/kg administered intraperitoneally 7qd in mice; Body wt initial/Final = 19.6/18.3; format: functional, Mus musculus; conditions: route intraperitoneal
[29] = In vivo antitumor activity against murine S-180 sarcoma at a dose of 13 mg/kg administered intraperitoneally 7qd in mice expressed as percent inhibition; format: functional; conditions: Mus musculus, S-180, ip, route intraperitoneal
[30] = In vivo antitumor activity against murine S-180 sarcoma at a dose of 2.5 mg/kg administered intraperitoneally 7qd in mice expressed as percent inhibition; format: functional; conditions: Mus musculus, S-180, ip, route intraperitoneal
[31] = In vivo antitumor activity against murine S-180 sarcoma at a dose of 3.3 mg/kg administered intraperitoneally 7qd in mice expressed as percent inhibition; format: functional; conditions: Mus musculus, S-180, ip, route intraperitoneal
[32] = In vivo antitumor activity against murine S-180 sarcoma at a dose of 4.8 mg/kg administered intraperitoneally 7qd in mice; Body wt initial/Final = 19.8/20.7; format: functional, Mus musculus; conditions: route intraperitoneal
[33] = In vivo antitumor activity against murine S-180 sarcoma at a dose of 4.8 mg/kg administered intraperitoneally 7qd in Male TA1 mice; 10 survived out of 10 mice; format: functional, Mus musculus; conditions: route intraperitoneal
[34] = Lethal dose at a concentration of 0.163 mmol/kg in mice administered intraperitoneally; format: toxicity, organism-based; conditions: mouse, in vivo, ip
[35] = In vivo antitumor activity against murine S-180 sarcoma at a dose of 5 mg/kg administered intraperitoneally 7qd in mice expressed as percent inhibition; format: functional; conditions: Mus musculus, S-180, ip, route intraperitoneal
[36] = In vivo antitumor activity against murine S-180 sarcoma at a dose of 6.8 mg/kg administered intraperitoneally 7qd in mice expressed as percent inhibition; format: functional; conditions: Mus musculus, S-180, ip, route intraperitoneal
[37] = In vivo antitumor activity against murine S-180 sarcoma at a dose of 1.3 mg/kg administered intraperitoneally 7qd in Male TA1 mice; 10 survived out of 10 mice; format: functional, Mus musculus; conditions: route intraperitoneal
[38] = In vivo antitumor activity against murine S-180 sarcoma at a dose of 5 mg/kg administered intraperitoneally 7qd in Male TA1 mice; 9 survived out of 10 mice; format: functional, Mus musculus; conditions: route intraperitoneal
[39] = In vivo antitumor activity against murine S-180 sarcoma at a dose of 6.8 mg/kg administered intraperitoneally 7qd in Male TA1 mice; 9 survived out of 10 mice; format: functional, Mus musculus; conditions: route intraperitoneal
[40] = In vivo antitumor activity against murine S-180 sarcoma at a dose of 1.3 mg/kg administered intraperitoneally 7qd in mice expressed effect on tumor weight; format: functional, Mus musculus; conditions: route intraperitoneal
[41] = In vivo antitumor activity against murine S-180 sarcoma at a dose of 5 mg/kg administered intraperitoneally 7qd in mice expressed effect on tumor weight; format: functional, Mus musculus; conditions: route intraperitoneal
[42] = In vivo antitumor activity against murine S-180 sarcoma at a dose of 6.8 mg/kg administered intraperitoneally 7qd in mice expressed effect on tumor weight; format: functional, Mus musculus; conditions: route intraperitoneal
[43] = In vivo antitumor activity against murine S-180 sarcoma at a dose of 1.3 mg/kg administered intraperitoneally 7qd in mice; Body wt initial/Final = 19.9/23.4; format: functional, Mus musculus; conditions: route intraperitoneal
[44] = In vivo antitumor activity against murine S-180 sarcoma at a dose of 2.5 mg/kg administered intraperitoneally 7qd in mice; Body wt initial/Final = 20.0/21.3; format: functional, Mus musculus; conditions: route intraperitoneal
[45] = In vivo antitumor activity against murine S-180 sarcoma at a dose of 5 mg/kg administered intraperitoneally 7qd in mice; Body wt initial/Final = 19.7/19.1; format: functional, Mus musculus; conditions: route intraperitoneal
[46] = In vivo antitumor activity against murine S-180 sarcoma at a dose of 6.8 mg/kg administered intraperitoneally 7qd in mice; Body wt initial/Final = 19.8/18.4; format: functional, Mus musculus; conditions: route intraperitoneal
[47] = In vivo antitumor activity against murine S-180 sarcoma at a dose of 1.3 mg/kg administered intraperitoneally 7qd in mice expressed as percent inhibition; format: functional; conditions: Mus musculus, S-180, ip, route intraperitoneal

In the case of `Nc1ccc(S(=O)(=O)N(CCOC(=O)CCCc2ccc(N(CCCl)CCCl)cc2)c2ncccn2)cc1`, the selectivity ratio [1] is reported as 47.5, the LD50 [2] is reported as 131 mg/kg and the Tumor weight [3] is reported as 0.51. For the same compound, the inhibition in vivo at 4.8 mg/kg [4] was 63.4%, the inhibition in vivo at 6.5 mg/kg [5] was 74.2% and the inhibition in vivo at 9.6 mg/kg [6] was 76.9%. The LD50 x 1/10 (Mus musculus [7]) was 81.5, the LD50 x 1/20 (Mus musculus [8]) was 74.2 and the LD50 x 1/40 (Mus musculus [9]) was 50.7. For the same compound, the “Mice In. / Fi.” value [10] was 9, the “Mice In. / Fi.” value [11] was 10 and the “Mice In. / Fi.” value [12] was 10. For the same compound, the “Mice In. / Fi.” value [13] was 10, the “Mice In. / Fi.” value [14] was 9 and the Tumor weight [15] was 0.41. The Tumor weight [16] was 1.15, the Tumor weight [17] was 1.09 and the Tumor weight [18] was 0.81. It also gave a Tumor weight [19] of 0.57, an Antitumour activity [20] of 76.9 and an Antitumour activity [21] of 81.5. The “Body weight In. / Fi.” value [22] was 19.8 g, the “Body weight In. / Fi.” value [23] was 19.9 g and the “Body weight In. / Fi.” value [24] was 19.6 g. The Antitumour activity [25] was 47.9, the Antitumour activity [26] was 63.4 and the “Body weight In. / Fi.” value [27] was 19.8 g. For the same compound, the “Body weight In. / Fi.” value [28] was 19.6 g, the inhibition in vivo at 13 mg/kg [29] was 81.5% and the inhibition in vivo at 2.5 mg/kg [30] was 48%. For the same compound, the inhibition in vivo at 3.3 mg/kg [31] was 50.7%, the “Body weight In. / Fi.” value [32] was 19.8 g and the “Mice In. / Fi.” value [33] was 10.
`O=C(O)CCCc1ccc(N(CCCl)CCCl)cc1` [CHLORAMBUCIL] gave a selectivity ratio [1] of 22.8, an LD50 [34] of 49.6 mg/kg and an inhibition in vivo at 5 mg/kg [35] of 73.3%. The inhibition in vivo at 6.8 mg/kg [36] was 77.4%, the LD50 x 1/10 (Mus musculus [7]) was 73.3 and the LD50 x 1/20 (Mus musculus [8]) was 52.9. The LD50 x 1/40 (Mus musculus [9]) was 37.1, the “Mice In. / Fi.” value [37] was 10 and the “Mice In. / Fi.” value [11] was 10. For the same compound, the “Mice In. / Fi.” value [38] was 9, the “Mice In. / Fi.” value [39] was 9 and the Tumor weight [40] was 1.39. For the same compound, the Tumor weight [16] was 1.04, the Tumor weight [41] was 0.59 and the Tumor weight [42] was 0.5. For the same compound, the Antitumour activity [20] was 73.3, the Antitumour activity [21] was 77.4 and the “Body weight In. / Fi.” value [43] was 19.9 g. For the same compound, the “Body weight In. / Fi.” value [44] was 20 g, the Antitumour activity [25] was 37.1 and the Antitumour activity [26] was 52.9. The “Body weight In. / Fi.” value [45] was 19.7 g, the “Body weight In. / Fi.” value [46] was 19.8 g and the inhibition in vivo at 1.3 mg/kg [47] was 37.1%. The inhibition in vivo at 2.5 mg/kg [30] was 52.9%.
